Reference: patent publication US10039740B2, “Therapeutic combinations of sesquiterpenes and flavonoids” (Primus Pharmaceuticals, Inc., priority 2015, dated 2018)

Columns and labels:
[1] = tested on: RAW267.4 cells; assay: Cell proliferation of RAW267.4 cells (cell counting); type: cell-based, mouse; conditions: cultured 3 days; for proliferation of RAW267.4 cells: p<0.001 vs control; for effect on RAW267.4 cells (proliferation): 1, 10, 50, 100, and 200 μg/ml, FIG. 4, FIG. 5
Protocol: Various experiments were conducted to determine effects of various active ingredients on RAW 267.4 in vitro. RAW267.4 cells refer to a mouse macrophage that produces various inflammatory cytokines including TNF-α and IL-1β. RAW267.4 cells may be prepared as 1×10^5/ml per well. These cells were cultured using a 24-well plate in DMEM containing 10% FBS and 1% P/S for 1, 2, 3 or 7 days in a water-saturated atmosphere containing 5% CO2 and 95% air at 37° C. RAW267.4 cells were cultured DMEM containing 10% FBS and 1% P/S in the presence of β-caryophyllene [1 (5 μM), 10, 50, 100 or 200 μg/ml of medium], baicalin [1 (2.24 μM), 10, 50, 100 or 200 μg/ml of medium], (+)-catechin [1 (3.45 μM), 10, 50, 100 or 200 μg/ml of medium], curcumin [1 (2.72 μM), 10, 50, 100 or 200 μg/ml of medium], or (+)-aromatic turmerone [1 (4.62 μM), 5, 10, 25 or 50 μg/ml of medium] for 3 days. After culture, cells were detached from each culture dish and counted. After trypsinization of each culture dish using 0.2% […] plus 0.02% EDTA in Ca^2+/Mg^2+-free PBS for 2 min at 37° C., detached cells from the dish were collected after centrifugation. Cells were resuspended in PBS solution and stained with eosin. Cell numbers were counted under a microscope using a Hemocytometer plate. Each dish was counted twice, and an average of two counts was calculated. Cell number was shown as number per well of plate. Statistical significance was determined using GraphPad InStat version 3 for Windows XP (GraphPad Software Inc. La Jolla, Calif.). Multiple comparisons were performed by one-way analysis of variance (ANOVA) with Tukey-Kramer multiple comparisons post test for parametric data as indicated. P<0.05 was considered statistically significant. The cells were cultured for 3 days in the presence of one or more various compounds to determine their anti-inflammatory effects.

[2] = tested on: RAW267.4 cells; assay: Cell death of RAW267.4 cells (cell number after confluence); type: cell-based, mouse; conditions: for death of RAW267.4 cells in vitro: conclusion from the cell death experiments
Protocol: RAW267.4 cells (1×10^5/ml per well) were cultured using a 24-well plate in DMEM containing 10% FBS and 1% P/S for 3 days until reaching confluence, and then the cells were cultured another for 2 days in the presence or absence of β-caryophyllene (1 or 10 μg/ml of medium) and/or baicalin or (+)-catechin (1 or 10 μg/ml of medium). After culture, cells were detached from each culture dish. After trypsinization of each culture dish using 0.2% […] plus 0.02% EDTA in Ca^2+/Mg^2+-free PBS for 2 min at 37° C., detached cells from the dish were collected after centrifugation. Cells were resuspended in PBS solution and stained with eosin. Cell numbers were counted under a microscope using a Hemocytometer plate. Each dish was counted twice, and an average of two counts was calculated. Cell number was shown as number per well of plate. Statistical significance was determined using GraphPad InStat version 3 for Windows XP (GraphPad Software Inc. La Jolla, Calif.). Multiple comparisons were performed by one-way analysis of variance (ANOVA) with Tukey-Kramer multiple comparisons post test for parametric data as indicated. P<0.05 was considered statistically significant.

## CC(C)=CC(=O)C[C@H](C)c1ccc(C)cc1 [(+)-aromatic turmerone, reference compound]
[1]; 25 and 50 μg/ml, FIG. 3
  proliferation of RAW267.4 cells: significantly increased

## Oc1cc(O)c2c(c1)O[C@H](c1ccc(O)c(O)c1)[C@@H](O)C2 [(+)-catechin]
[1]
  effect on RAW267.4 cells (proliferation): did not result in a significant effect
[2]
  death of RAW267.4 cells in vitro: do not have significant effects

## O=C(O)[C@H]1O[C@@H](Oc2cc3oc(-c4ccccc4)cc(=O)c3c(O)c2O)[C@H](O)[C@@H](O)[C@@H]1O [baicalin]
[1]
  effect on RAW267.4 cells (proliferation): did not result in a significant effect
[2]
  death of RAW267.4 cells in vitro: do not have significant effects

## COc1cc(/C=C/C(=O)CC(=O)/C=C/c2ccc(O)c(OC)c2)ccc1O [curcumin, reference compound]
[1]; 100 and 200 μg/ml, FIG. 2
  proliferation of RAW267.4 cells: suppressed

## C=C1CC/C=C(\C)CC[C@@H]2[C@@H]1CC2(C)C [β-caryophyllene]
[1]; 1 or 10 μg/ml of each compound, FIG. 6, 7, 8, 10
  suppressive effect on cell proliferation: did not result any significant suppressive effect
[1]; 50, 100, and 200 μg/ml of medium, FIG. 1
  proliferation of RAW267.4 cells: suppressed
[2]; 3 days without chemicals, then 2 days with compound(s) at about 1 or 10 μg/ml of medium, FIG. 13
  number of RAW267.4 cells (cell death): did not induce a significant decrease
[2]
  death of RAW267.4 cells in vitro: do not have significant effects
